Test results taken from ChEMBL document CHEMBL5726546, “Dihydroquinoline pyrazolyl compounds” (2017).

How the values were obtained:
[1] = target: T1, Cytochrome P450 11B2, mitochondrial (Homo sapiens, UniProt P19099); assay: (§1) Inhibition Assay: The expression plasmids contains the ORF for either human/cyno CYP11B1 or CYP11B2 under the control of a suitable promoter (CMV-promoter) and a suitable resistance marker (neomycin). Using standard techniques the expression plasmid is transfected into G-402 cells and these cells are then selected for expressing the given resistance markers. Individual cell-clones are then selected and assessed for displaying the desired enzymatic activity using 11-Deoxycorticosterone (Cyp11B2) or 11-Deoxycortisol (Cyp11B1) as a substrate.G-402 cells expressing CYP11 constructs were established as described above and maintained in McCoy's 5a Medium Modified, ATCC Catalog No. 30-2007 containing 10% FCS and 400 μg/ml G418 (Geneticin) at 37° C. under an atmosphere of 5% CO2/95% air. Cellular enzyme assays were performed in DMEM/F12 medium containing 2.5% charcoal treated FCS and appropriate concentration of substrate (0.3-10 uM 11-Deoxycorticosterone, 11-Deoxycortisol or Corticosterone). For assaying enzymatic activity, cells were plated onto 96 well plates and incubated for 16 h. An aliquot of the supernatant is then transferred and analyzed for the concentration of the expected product (Aldosterone for CYP11B2; Cortisol for CYP11B1). The concentrations of these steroids can be determined using HTRF assays from CisBio analyzing either Aldosterone or Cortisol.
T1 sequence (P19099 whole entry): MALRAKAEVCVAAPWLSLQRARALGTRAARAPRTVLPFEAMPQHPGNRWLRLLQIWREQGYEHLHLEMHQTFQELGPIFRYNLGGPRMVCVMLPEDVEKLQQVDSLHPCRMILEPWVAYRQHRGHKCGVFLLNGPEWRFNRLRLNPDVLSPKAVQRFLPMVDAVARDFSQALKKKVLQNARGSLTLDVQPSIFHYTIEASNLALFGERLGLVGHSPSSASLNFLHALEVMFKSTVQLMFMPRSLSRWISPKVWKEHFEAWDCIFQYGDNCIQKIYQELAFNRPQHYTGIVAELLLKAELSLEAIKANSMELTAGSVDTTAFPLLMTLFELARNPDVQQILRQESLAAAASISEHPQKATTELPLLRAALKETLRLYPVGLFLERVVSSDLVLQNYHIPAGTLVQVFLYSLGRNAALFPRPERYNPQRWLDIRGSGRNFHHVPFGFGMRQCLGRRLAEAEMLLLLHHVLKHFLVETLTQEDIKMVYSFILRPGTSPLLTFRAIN

[2] = target: T2, Cytochrome P450 11B1, mitochondrial (Homo sapiens, UniProt P15538); assay: as §1
T2 sequence (P15538 whole entry): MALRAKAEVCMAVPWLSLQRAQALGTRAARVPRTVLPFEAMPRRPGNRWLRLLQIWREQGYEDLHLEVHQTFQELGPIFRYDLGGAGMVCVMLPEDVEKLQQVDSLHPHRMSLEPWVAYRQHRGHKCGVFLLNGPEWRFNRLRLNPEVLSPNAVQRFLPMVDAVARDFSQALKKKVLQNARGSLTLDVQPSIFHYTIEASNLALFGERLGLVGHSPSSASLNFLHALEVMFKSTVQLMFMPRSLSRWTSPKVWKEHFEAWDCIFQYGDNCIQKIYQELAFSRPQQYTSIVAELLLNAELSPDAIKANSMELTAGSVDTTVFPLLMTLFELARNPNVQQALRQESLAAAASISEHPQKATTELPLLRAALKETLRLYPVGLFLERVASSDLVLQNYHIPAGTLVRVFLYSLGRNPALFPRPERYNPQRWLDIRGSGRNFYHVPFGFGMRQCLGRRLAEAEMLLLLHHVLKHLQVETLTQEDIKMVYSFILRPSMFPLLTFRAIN

SMILES: CC(=O)N1CCC([C@@H](C)c2c[nH]nc2-c2ccc3c(c2F)CCC(=O)N3C)CC1 (single isomer, unassigned)
- EC50 [1]: 0.012 nM
- EC50 [2]: 0.074 nM

SMILES: CN1C(=O)CCc2c1ccc(-c1n[nH]cc1CC1CCN(S(=O)(=O)c3ccnn3C)CC1)c2F
- EC50 [1]: 0.014 nM
- EC50 [2]: 0.704 nM

SMILES: CC(=O)N1CCC(C(C)c2c[nH]nc2-c2ccc3c(c2F)CCC(=O)N3C)CC1 (racemic)
- EC50 [2]: 0.049 nM

SMILES: CC(=O)N1CCC(C(C)c2c[nH]nc2-c2cc3c(cc2F)N(C)C(=O)CC3)CC1 (racemic)
- EC50 [2]: 0.067 nM

SMILES: CC(=O)N1CCC([C@H](C)c2c[nH]nc2-c2ccc3c(c2F)CCC(=O)N3C)CC1 (single isomer, unassigned)
- EC50 [1]: 0.064 nM

SMILES: CN1C(=O)CCc2c1ccc(-c1n[nH]cc1CC1CCN(C(=O)c3ccnn3C)CC1)c2F
- EC50 [2]: 0.076 nM
